Test results as given in patent publication US11395821B2, “Treatment of EGFR-driven cancer with fewer side effects” (G1 Therapeutics, Inc., priority 2017, dated 2022).
Read-outs that look alike come from different tables or passages of the source.

How the values were obtained:
[1] = cited from earlier work; for Grade ≥3 decrease in neutrophil count: laboratory findings
[2] = in vivo; cited from earlier work
[3] = cited from earlier work
[4] = human, in vivo; cited from earlier work
[5] = test system: EGFR^ex19del/T790M PDX NSCLC tumor fragments (TM00219, Jackson Labs); assay: Example 4: Compound IV +/- osimertinib in EGFR ex19del/T790M PDX model; format: in vivo, NSG mice; conditions: once daily oral gavage 28 days; Compound IV 100 mg/kg or osimertinib 2.5 mg/kg alone
Source text: (§1) The x-axis is days from initiation measured in time and the y-axis is mean tumor volume measured in mm^3.
The x-axis is days from initiation measured in time and the y-axis is median tumor volume measured in mm^3.
After 28 days tumors continued to be measured until they reached tumor burden (>2000 mm^3).

[6] = test system: EGFR^ex20ins PDX NSCLC tumor fragments (LU0387, CrownBio); assay: Example 5: Compound IV +/- osimertinib in EGFR ex20ins PDX model; format: in vivo, BALB/c nude mice; conditions: once daily oral gavage, 17 days; Compound IV 100 mg/kg or osimertinib 10 mg/kg alone
Source text: as §1
Tumors continued to be measured until they reached tumor burden (>3000 mm3).

[7] = cited from earlier work; remark: listed apart in the source
[8] = cited from earlier work; remark: listed apart in the source
[9] = cited from earlier work; remark: listed apart in the source
[10] = cited from earlier work; remark: listed apart in the source
[11] = all grades, GILOTRIF n=229, pemetrexed/cisplatin n=111

## CCN1CCN(Cc2ccc(Nc3ncc(F)c(-c4cc(F)c5nc(C)n(C(C)C)c5c4)n3)nc2)CC1 [abemaciclib]
[1]; MONARCH 1
  Grade ≥3 decrease in neutrophil count: 27%
[1]; alone, MONARCH 1
  Grade 3 diarrhea: 20%
  diarrhea: 90%
  neutropenia: 37%
[1]; human, in vivo
  alanine aminotransferase (ALT) increased: 41%
  aspartate aminotransferase (AST) increased: 37%
  dose reductions due to diarrhea of any grade: 19%
  dose reductions due to neutropenia of any grade: 10%
  permanent treatment discontinuation due to an adverse event: 9%
[1]; plus fulvestrant, MONARCH 2
  Grade 3 diarrhea: 13%
  diarrhea: 86%
  neutropenia: 46%
  Grade ≥3 decrease in neutrophil count: 32%
[1]; plus fulvestrant
  dose reductions due to an adverse reaction: 43%

## CC(=O)c1c(C)c2cnc(Nc3ccc(N4CCNCC4)cn3)nc2n(C2CCCC2)c1=O [palbociclib]
[2]
  T½: roughly 27 hours
[3]; Study 1 (PALOMA-2)
  incidence of neutropenia: 80%
[3]; Study 2 (PALOMA-3)
  incidence of neutropenia: 83%
[3]; human, in vivo
  complete drug discontinuation: 8%
  median duration of Grade ≥3 neutropenia: 7 days
  median time to first episode of any grade neutropenia: 15 days
  patients requiring a dose interruption: 71%
  patients requiring a dose reduction: 36%
[3]; patients in PALOMA-2 and PALOMA-3
  Grade ≥3 decrease in neutrophil counts: 66%
[3]; patients treated
  increased alanine transferase: 40%
  increased aspartate aminotransferase (AST): 48%

## C=CC(=O)Nc1cc(Nc2nccc(-c3cn(C)c4ccccc34)n2)c(OC)cc1N(C)CCN(C)C [osimertinib, reference compound]
[4]
  nail toxicity: 22%
  patients experiencing Grade 3 neutropenia: up to 2.2%
[5]
  tumor growth vs vehicle, single agent: modest tumor growth inhibition
[6]
  tumor growth vs vehicle, single agent: did not cause an effect

## C#Cc1cccc(Nc2ncnc3cc(OCCOC)c(OCCOC)cc23)c1.Cl [TARCEVA, erlotinib]
[7]; approximately 32,000 patients, all studies
  overall incidence of ILD: approximately 1.1%
[7]; human, in vivo
  discontinued therapy due to adverse reactions: 14.3%
  dose interruptions or reductions due to adverse reactions: 37%
  dose modification due to asthenia: 3.6%
  dose modification due to diarrhea: 10%
  dose modification due to rash: 13%
  liver function test abnormalities (ALT, AST, bilirubin): Grade 2 and Grade 3 liver function test abnormalities
  median time to onset of diarrhea: 32 days
  median time to onset of rash: 15 days
  most frequent Grade 3-4 adverse reactions: rash and diarrhea
  most frequent adverse reactions: diarrhea, asthenia, rash, cough, dyspnea, decreased appetite: ≥ 30%
[7]; patients with ILD
  median onset of ILD symptoms after initiating therapy: 39 days
  onset of ILD symptoms after initiating therapy (span): between 5 days to more than 9 months

## CN(C)C/C=C/C(=O)Nc1cc2c(Nc3ccc(F)c(Cl)c3)ncnc2cc1O[C@H]1CCOC1 [GILOTRIF, afatinib]
[8]; 3865 patients
  fatal liver test abnormalities: 0.18%
  liver test abnormalities: 10.1%
[8]; [11]
  diarrhea: 96%
  dry skin: 31%
  paronychia: 58%
  pruritus: 21%
  rash/acneiform dermatitis: 90%
  stomatitis: 71%
[8]; human, in vivo
  decreased appetite: 29%
  fatal pneumonia: 0.43%
  fatal pulmonary toxicity/interstitial lung disease (ILD)-like adverse reactions: 1.3%
  fatal sepsis: 0.43%
  nausea: 25%
  serious adverse reaction: diarrhea: 6.6%
  serious adverse reaction: dyspnea: 1.7%
  serious adverse reaction: fatigue: 1.7%
  serious adverse reaction: hypokalemia: 1.7%
  serious adverse reaction: vomiting: 4.8%
  serious adverse reactions: 29%
  ventricular dysfunction (all <Grade 3): 2.2%
  vomiting: 23%

## COc1cc2ncnc(Nc3ccc(F)c(Cl)c3)c2cc1OCCCN1CCOCC1 [IRESSA, gefitinib]
[9]; across NSCLC
  skin reactions: 47%
[9]; human, in vivo
  incidence of fatal hepatotoxicity: 0.04%

## CN(C)C(=O)c1cc2cnc(Nc3ccc(N4CCNCC4)cn3)nc2n1C1CCCC1 [ribociclib]
[10]; KISQALI treatment arms
  Grade 3 or 4 increases in ALT: 10%
  Grade 3 or 4 increases in AST: 7%
[10]; MONALEESA-2 study
  patients with at least one average QTcF interval of more than 480 msec after baseline: 3.3%
[10]; adverse reaction
  alopecia: 33%
  back pain: 20%
  constipation: 25%
  diarrhea: 35%
  fatigue: 37%
  headache: 22%
  leukopenia: 33%
  neutropenia: 75%
  vomiting: 29%
[10]; based on laboratory findings
  Grade 3/4 decrease in neutrophil count: 60%
[10]; first mention
  treatment discontinuation due to increased ALT: 4%
[10]; human, in vivo
  QT interval: prolong the QT interval in a concentration-dependent manner
  dose reductions due to adverse reactions: 45%
  permanent discontinuations due to ARs: 7%
  treatment discontinuation due to vomiting: 2%
[10]; second mention
  treatment discontinuation due to increased ALT: 3%
